Test results published in PubChem BioAssay AID1845197 (Molecular Pharmacology Branch, DTP, NCI, 2023).
Several values for one entry are separate records, joined by “and”; a condition that tells them apart may be missing. Equal entries are not always repeated.

Test system: 349418-098-R tumor spheroid viability
Experiment: Anticancer human tumor 349418-098-R patient-derived lung adenocarcinoma cell line growth inhibition
Settings: spheroids with HUVEC and MSC; for viability, T/C: stronger effect = lower value
Summary of the method: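 Complex tumor spheroids combined malignant cells with endothelial cells and mesenchymal stem cells. DNA-damaging drugs and DNA repair inhibitors were tested alone and in combination, at half-log dilutions down from clinical Cmax (top 10 microM if Cmax unknown), 0.25% DMSO final.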
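Also: spheroids exposed to compound for 7 days before measurement.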
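For viability, T/C in this document: percent of vehicle control viability with 100% = DMSO-treated spheroids.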

Question: Which IC50 (curve of first compound, second compound 1 µM) does the source give for `Cc1sc2c(c1C)C(c1ccc(Cl)cc1)=NC(CC(=O)Nc1ccc(O)cc1)c1nnc(C)n1-2` (stereo not drawn) + Cn1nnc2c(C(N)=O)ncn2c1=O here?
Answer: 143 nM

Question: And the IC50 (curve of first compound, second compound 3.16 µM)?
Answer: 133 nM

Question: And the IC50 (curve of first compound, second compound 10 µM)?
Answer: 129 nM

Question: And the IC50 (curve of first compound, second compound 31.6 µM)?
Answer: 154 nM

Question: And the IC50 (curve of first compound, second compound 100 µM)?
Answer: 129 nM

Question: What about the viability, T/C (second compound 1 µM, first compound 0.00949 µM) of the same molecule?
Answer: 99%

Question: And the viability, T/C (second compound 1 µM, first compound 0.03 µM)?
Answer: 102%

Question: And the viability, T/C (second compound 1 µM, first compound 0.0949 µM)?
Answer: 67.8%

Question: What about the viability, T/C (second compound 1 µM, first compound 0.3 µM) of the same molecule?
Answer: 16.6%

Question: What about the viability, T/C (second compound 1 µM, first compound 0.949 µM) of the same molecule?
Answer: 1.96%

Question: And the viability, T/C (second compound 1 µM, first compound 3 µM)?
Answer: 0.51%

Question: And the viability, T/C (second compound 3.16 µM, first compound 0.00949 µM)?
Answer: 99.2%

Question: What about the viability, T/C (second compound 3.16 µM, first compound 0.03 µM) of the same molecule?
Answer: 105%

Question: What about the viability, T/C (second compound 3.16 µM, first compound 0.0949 µM) of the same molecule?
Answer: 62.7%

Question: What about the viability, T/C (second compound 3.16 µM, first compound 0.3 µM) of the same molecule?
Answer: 16.5%

Question: And the viability, T/C (second compound 3.16 µM, first compound 0.949 µM)?
Answer: 1.3%

Question: And the viability, T/C (second compound 3.16 µM, first compound 3 µM)?
Answer: 0.49%

Question: What about the viability, T/C (second compound 10 µM, first compound 0.00949 µM) of the same molecule?
Answer: 99.2%

Question: And the viability, T/C (second compound 10 µM, first compound 0.03 µM)?
Answer: 102%

Question: And the viability, T/C (second compound 10 µM, first compound 0.0949 µM)?
Answer: 63.7%

Question: What about the viability, T/C (second compound 10 µM, first compound 0.3 µM) of the same molecule?
Answer: 10.9%

Question: What about the viability, T/C (second compound 10 µM, first compound 0.949 µM) of the same molecule?
Answer: 1.25%

Question: What about the viability, T/C (second compound 10 µM, first compound 3 µM) of the same molecule?
Answer: 0.39%

Question: What about the viability, T/C (second compound 31.6 µM, first compound 0.00949 µM) of the same molecule?
Answer: 103%

Question: What about the viability, T/C (second compound 31.6 µM, first compound 0.03 µM) of the same molecule?
Answer: 103%

Question: And the viability, T/C (second compound 31.6 µM, first compound 0.0949 µM)?
Answer: 72.1%

Question: And the viability, T/C (second compound 31.6 µM, first compound 0.3 µM)?
Answer: 19.3%

Question: What about the viability, T/C (second compound 31.6 µM, first compound 0.949 µM) of the same molecule?
Answer: 1.26%

Question: What about the viability, T/C (second compound 31.6 µM, first compound 3 µM) of the same molecule?
Answer: 0.43%

Question: And the viability, T/C (second compound 100 µM, first compound 0.00949 µM)?
Answer: 106%

Question: What about the viability, T/C (second compound 100 µM, first compound 0.03 µM) of the same molecule?
Answer: 105%

Question: And the viability, T/C (second compound 100 µM, first compound 0.0949 µM)?
Answer: 64.9%

Question: And the viability, T/C (second compound 100 µM, first compound 0.3 µM)?
Answer: 9.26%

Question: What about the viability, T/C (second compound 100 µM, first compound 0.949 µM) of the same molecule?
Answer: 0.75%

Question: What about the viability, T/C (second compound 100 µM, first compound 3 µM) of the same molecule?
Answer: 0.45%

Question: Which IC50 (curve of first compound, second compound 30 pM) does the source give for `CC1COCCN1c1cc(-c2ccnn2C)c2ccnc(-c3ccn[nH]3)c2n1` (stereo not drawn) + COc1cc2c(cc1O)CCNC21CSC2c3c(OC(C)=O)c(C)c4c(c3C(COC1=O)N1C(O)C3Cc5cc(C)c(OC)c(O)c5C(C21)N3C)OCO4 here?
Answer: 63.1 nM

Question: What about the IC50 (curve of first compound, second compound 94.9 pM) of the same molecule?
Answer: 36.5 nM

Question: What about the IC50 (curve of first compound, second compound 0.0003 µM) of the same molecule?
Answer: < 31.6 nM

Question: And the IC50 (curve of first compound, second compound 0.000949 µM)?
Answer: < 31.6 nM

Question: What about the IC50 (curve of first compound, second compound 0.003 µM) of the same molecule?
Answer: < 31.6 nM

Question: What about the viability, T/C (second compound 30 pM, first compound 0.0316 µM) of the same molecule?
Answer: 88.5%

Question: And the viability, T/C (second compound 30 pM, first compound 0.1 µM)?
Answer: 24.3%

Question: What about the viability, T/C (second compound 30 pM, first compound 0.316 µM) of the same molecule?
Answer: 13.4%

Question: And the viability, T/C (second compound 30 pM, first compound 1 µM)?
Answer: 12.1%

Question: And the viability, T/C (second compound 30 pM, first compound 3.16 µM)?
Answer: 12.2%

Question: What about the viability, T/C (second compound 30 pM, first compound 10 µM) of the same molecule?
Answer: 11.8%

Question: And the viability, T/C (second compound 94.9 pM, first compound 0.0316 µM)?
Answer: 54.9%

Question: And the viability, T/C (second compound 94.9 pM, first compound 0.1 µM)?
Answer: 16.2%

Question: What about the viability, T/C (second compound 94.9 pM, first compound 0.316 µM) of the same molecule?
Answer: 9.93%

Question: And the viability, T/C (second compound 94.9 pM, first compound 1 µM)?
Answer: 10.6%

Question: And the viability, T/C (second compound 94.9 pM, first compound 3.16 µM)?
Answer: 12.4%

Question: What about the viability, T/C (second compound 94.9 pM, first compound 10 µM) of the same molecule?
Answer: 10.6%

Question: What about the viability, T/C (second compound 0.0003 µM, first compound 0.0316 µM) of the same molecule?
Answer: 12%

Question: What about the viability, T/C (second compound 0.0003 µM, first compound 0.1 µM) of the same molecule?
Answer: 4.5%

Question: And the viability, T/C (second compound 0.0003 µM, first compound 0.316 µM)?
Answer: 5.77%

Question: What about the viability, T/C (second compound 0.0003 µM, first compound 1 µM) of the same molecule?
Answer: 6.89%

Question: And the viability, T/C (second compound 0.0003 µM, first compound 3.16 µM)?
Answer: 7.2%

Question: And the viability, T/C (second compound 0.0003 µM, first compound 10 µM)?
Answer: 7.37%

Question: What about the viability, T/C (second compound 0.000949 µM, first compound 0.0316 µM) of the same molecule?
Answer: 0.38%

Question: What about the viability, T/C (second compound 0.000949 µM, first compound 0.1 µM) of the same molecule?
Answer: 0.68%

Question: And the viability, T/C (second compound 0.000949 µM, first compound 0.316 µM)?
Answer: 0.46%

Question: And the viability, T/C (second compound 0.000949 µM, first compound 1 µM)?
Answer: 0.39%

Question: What about the viability, T/C (second compound 0.000949 µM, first compound 3.16 µM) of the same molecule?
Answer: 0.25%

Question: What about the viability, T/C (second compound 0.000949 µM, first compound 10 µM) of the same molecule?
Answer: 0.23%

Question: And the viability, T/C (second compound 0.003 µM, first compound 0.0316 µM)?
Answer: 1.52%

Question: What about the viability, T/C (second compound 0.003 µM, first compound 0.1 µM) of the same molecule?
Answer: 1.22%

Question: And the viability, T/C (second compound 0.003 µM, first compound 0.316 µM)?
Answer: 1.66%

Question: And the viability, T/C (second compound 0.003 µM, first compound 1 µM)?
Answer: 1.39%

Question: And the viability, T/C (second compound 0.003 µM, first compound 3.16 µM)?
Answer: 1.43%

Question: What about the viability, T/C (second compound 0.003 µM, first compound 10 µM) of the same molecule?
Answer: 1.5%

Question: Which results are given for `Cn1nnc2c(C(N)=O)ncn2c1=O`?
Answer: viability, T/C (compound 1 µM): 101% [middle of 10 runs]; viability, T/C (compound 3.16 µM): 101% [middle of 10 runs]; viability, T/C (compound 10 µM): 100% [middle of 10 runs]; viability, T/C (compound 31.6 µM): 102% [middle of 10 runs]; viability, T/C (compound 100 µM): 103% [middle of 10 runs]; IC50 (compound alone, run of 10/17/2019): > 100000 nM

Question: Which viability, T/C (compound 0.0949 µM) does the source give for `O=C(c1cc(Cc2n[nH]c(=O)c3ccccc23)ccc1F)N1CCN(C(=O)C2CC2)CC1` here?
Answer: 103% and 97.1% and 105%

Question: What about the viability, T/C (compound 0.3 µM) of the same molecule?
Answer: 104% and 106% and 113%

Question: And the viability, T/C (compound 0.949 µM)?
Answer: 101% and 97.6% and 107%

Question: What about the viability, T/C (compound 3 µM) of the same molecule?
Answer: 94.8% and 97.7% and 110%

Question: What about the viability, T/C (compound 9.49 µM) of the same molecule?
Answer: 84.8% and 83.9% and 106%

Question: What about the viability, T/C (compound 30 µM) of the same molecule?
Answer: 56.2% and 53.6% and 74.1%

Question: And the IC50 (curve of compound)?
Answer: > 30000 nM
